Counter-ions that a name gives are not always drawn.
tested on: influx of neutrophils to the lung in LPS-challenged rats; experiment: Rat LPS neutrophilia model; format: in vivo; settings: intratracheal, LPS aerosol 100 ug/ml, in at least one of the range of conditions tested, significance p<0.05
Protocol: Rat LPS Neutrophilia Model
The effect of compounds on the influx of neutrophils to the lung in LPS-challenged rats is evaluated as follows. The test compound is suspended in one of the following solutions: 0.5% tween 80/PBS, 0.5% tween 80/saline, 10% EtOH/saline (with pH adjusted to 2.0, or 8.0 with HCl, or unadjusted), Saline (pH 2.0, 6.5 or 8.0, 0.5% Tragacanth, 1% DMSO/20% Encapsin/Saline, or acidified 5% Tragacanth. The suspension process may be aided by the use of a glass homogenizer. For intratracheal administration, the animals are anesthetized with inhaled isoflurane and placed in a supine position, the trachea is intubated with a steel gavage needle (1.5 inch, 22 gauge, small ball) or a Penn-Century Microsprayer Aerosolizer (model IA-1B) and 200 ul of dosing solution is delivered. The animals are visually monitored during the recovery process, which typically occurs within two minutes. It is noted that the test compounds may be alternatively administered via the microsprayer in a dry powder blend with a suitable excipient, such as lactose.
Rats treated with compound or vehicle (15 min-24 hours pretreatment) are exposed to an LPS aerosol (100 ug/ml) for 15 min. Four hours later the rats are euthanized with pentobarbital (100 mg/kg, i.p.) and the airways are lavaged with 5 washes of 5 ml of phosphate buffered saline. The harvested cells are stained (Diffquick) and counted to determine total and differential cell data. […] Inhibition of neutrophil levels relative to no compound controls is calculated based on the differential counts.
The data is obtained as % inhibition using a particular concentration and pretreat time.

SMILES	inhibition of neutrophilia (neutrophil levels in airway lavage relative to no compound controls)
Cc1ccc(C(=O)NC2CC2)cc1-c1nc(NCc2ncc[nH]2)nc2c1ccc(=O)n2-c1c(F)cccc1F [Example 23, N-cyclopropyl-3-{8-(2,6-difluorophenyl)-2-[(1H-imidazol-2-ylmethyl)amino]-7-oxo-7,8-dihydropyrido[2,3-d]pyrimidin-4-yl}-4-methylbenzamide]	statistically nonsignificant inhibition of neutrophilia
Cc1ccc(C(=O)Nc2ccc(F)cc2)cc1-c1nc(NC2CC(C)(C)NC(C)(C)C2)nc2c1ccc(=O)n2-c1c(F)cccc1F [Example 66, 3-{8-(2,6-difluorophenyl)-7-oxo-2-[(2,2,6,6-tetramethyl-4-piperidinyl)amino]-7,8-dihydropyrido[2,3-d]pyrimidin-4-yl}-N-(4-fluorophenyl)-4-methylbenzamide]	statistically significant inhibition of neutrophilia
Cc1ccc(C(=O)Nc2ccc(F)cc2)cc1-c1nc(N2CCC(N3CCC(C)CC3)CC2)nc2c1ccc(=O)n2-c1c(F)cccc1F [Example 174, 3-[8-(2,6-difluorophenyl)-2-(4-methyl-1,4′-bipiperidin-1′-yl)-7-oxo-7,8-dihydropyrido[2,3-d]pyrimidin-4-yl]-N-(4-fluorophenyl)-4-methylbenzamide]	inactive
CNCCNc1nc(-c2cc(C(=O)NCc3ccccc3)ccc2C)c2ccc(=O)n(-c3c(F)cccc3F)c2n1 [Example 59, 3-(8-(2,6-difluorophenyl)-2-{[2-(methylamino)ethyl]amino}-7-oxo-7,8-dihydropyrido[2,3-d]pyrimidin-4-yl)-4-methyl-N-(phenylmethyl)benzamide]	statistically significant inhibition of neutrophilia
Cc1ccc(C(=O)Nc2nccs2)cc1-c1nc(N(C)CCCN(C)C)nc2c1ccc(=O)n2-c1c(F)cccc1F [Example 107, 3-{8-(2,6-difluorophenyl)-2-[[3-(dimethylamino)propyl](methyl)amino]-7-oxo-7,8-dihydropyrido[2,3-d]pyrimidin-4-yl}-4-methyl-N-1,3-thiazol-2-ylbenzamide]	statistically significant inhibition of neutrophilia
CNCCNc1nc(-c2cc(C(=O)Nc3ccc(F)cc3)ccc2C)c2ccc(=O)n(-c3c(F)cccc3F)c2n1 [Example 60, 3-(8-(2,6-difluorophenyl)-2-{[2-(methylamino)ethyl]amino}-7-oxo-7,8-dihydropyrido[2,3-d]pyrimidin-4-yl)-N-(4-fluorophenyl)-4-methylbenzamide]	statistically significant inhibition of neutrophilia
CCN(CC)CCCNc1nc(-c2cc(C(=O)NC)ccc2C)c2ccc(=O)n(-c3c(F)cccc3F)c2n1 [Example 119, 3-[2-{[3-(diethylamino)propyl]amino}-8-(2,6-difluorophenyl)-7-oxo-7,8-dihydropyrido[2,3-d]pyrimidin-4-yl]-N,4-dimethylbenzamide]	statistically significant inhibition of neutrophilia
CCNC(=O)c1ccc(C)c(-c2nc(N3CCC(N4CCC(C)CC4)CC3)nc3c2ccc(=O)n3-c2c(F)cccc2F)c1 [Example 173, 3-[8-(2,6-difluorophenyl)-2-(4-methyl-1,4′-bipiperidin-1′-yl)-7-oxo-7,8-dihydropyrido[2,3-d]pyrimidin-4-yl]-N-ethyl-4-methylbenzamide]	statistically significant inhibition of neutrophilia
CCCNC(=O)c1ccc(C)c(-c2nc(NCCN(C)C)nc3c2ccc(=O)n3-c2c(F)cccc2F)c1 [Example 105, 3-(8-(2,6-difluorophenyl)-2-{[2-(dimethylamino)ethyl]amino}-7-oxo-7,8-dihydropyrido[2,3-d]pyrimidin-4-yl)-4-methyl-N-propylbenzamide]	statistically significant inhibition of neutrophilia
CNC1CCN(c2nc(-c3cc(C(=O)NC(C)C)ccc3C)c3ccc(=O)n(-c4c(F)cccc4F)c3n2)CC1 [113(b), 3-{8-(2,6-difluorophenyl)-2-[4-(methylamino)-1-piperidinyl]-7-oxo-7,8-dihydropyrido[2,3-d]pyrimidin-4-yl}-4-methyl-N-(1-methylethyl)benzamide]	statistically nonsignificant inhibition of neutrophilia
CCC(C)NC(=O)c1ccc(C)c(-c2nc(NCCCN(CC)CC)nc3c2ccc(=O)n3-c2c(F)cccc2F)c1 (stereo not drawn) [Example 162, 3-[2-{[3-(diethylamino)propyl]amino}-8-(2,6-difluorophenyl)-7-oxo-7,8-dihydropyrido[2,3-d]pyrimidin-4-yl]-4-methyl-N-(1-methylpropyl)benzamide]	statistically nonsignificant inhibition of neutrophilia
Cc1ccc(C(=O)Nc2nccs2)cc1-c1nc(NCc2ncc[nH]2)nc2c1ccc(=O)n2-c1c(F)cccc1F [79(c), 3-{8-(2,6-difluorophenyl)-2-[(1H-imidazol-2-ylmethyl)amino]-7-oxo-7,8-dihydropyrido[2,3-d]pyrimidin-4-yl}-4-methyl-N-1,3-thiazol-2-ylbenzamide]	statistically significant inhibition of neutrophilia
Cc1ccc(C(=O)Nc2ccc(F)cc2)cc1-c1nc(NCCN(C)C)nc2c1ccc(=O)n2-c1c(F)cccc1F [Example 112, 3-(8-(2,6-difluorophenyl)-2-{[2-(dimethylamino)ethyl]amino}-7-oxo-7,8-dihydropyrido[2,3-d]pyrimidin-4-yl)-N-(4-fluorophenyl)-4-methylbenzamide]	statistically nonsignificant inhibition of neutrophilia
Cc1ccc(C(=O)Nc2ccc(F)cc2)cc1-c1nc(NCc2ncc[nH]2)nc2c1ccc(=O)n2-c1c(F)cccc1F [Example 78, 3-{8-(2,6-difluorophenyl)-2-[(1H-imidazol-2-ylmethyl)amino]-7-oxo-7,8-dihydropyrido[2,3-d]pyrimidin-4-yl}-N-(4-fluorophenyl)-4-methylbenzamide]	statistically significant inhibition of neutrophilia
Cc1ccc(C(=O)NC2CCC2)cc1-c1nc(N2CCC(N3CCC(C)CC3)CC2)nc2c1ccc(=O)n2-c1c(F)cccc1F [Example 175, N-cyclobutyl-3-[8-(2,6-difluorophenyl)-2-(4-methyl-1,4′-bipiperidin-1′-yl)-7-oxo-7,8-dihydropyrido[2,3-d]pyrimidin-4-yl]-4-methylbenzamide]	inactive
CCCNC(=O)c1ccc(C)c(-c2nc(NCCNC)nc3c2ccc(=O)n3-c2c(F)cccc2F)c1 [56(d), 3-(8-(2,6-difluorophenyl)-2-{[2-(methylamino)ethyl]amino}-7-oxo-7,8-dihydropyrido[2,3-d]pyrimidin-4-yl)-4-methyl-N-propylbenzamide]	statistically significant inhibition of neutrophilia
Cc1ccc(NC(=O)c2cccc3cc[nH]c23)cc1-c1nc(NC(CO)CO)nc2c1ccc(=O)n2-c1c(F)cccc1F [Example 44, N-[3-(8-(2,6-difluorophenyl)-2-{[2-hydroxy-1-(hydroxymethyl)ethyl]amino}-7-oxo-7,8-dihydropyrido[2,3-d]pyrimidin-4-yl)-4-methylphenyl]-1H-indole-7-carboxamide trifluoroacetate]	statistically significant inhibition of neutrophilia
CCN(CC)CCCNc1nc(-c2cc(C(=O)NC3CC3)cc(F)c2C)c2ccc(=O)n(-c3c(F)cccc3F)c2n1 [Example 185, N-cyclopropyl-3-[2-{[3-(diethylamino)propyl]amino}-8-(2,6-difluorophenyl)-7-oxo-7,8-dihydropyrido[2,3-d]pyrimidin-4-yl]-5-fluoro-4-methylbenzamide]	statistically nonsignificant inhibition of neutrophilia
CCN(CC)CCCNc1nc(-c2cc(C(=O)N[C@H](C)C(C)C)ccc2C)c2ccc(=O)n(-c3c(F)cccc3F)c2n1 [Example 130]	statistically nonsignificant inhibition of neutrophilia
Cc1ccc(C(=O)Nc2nccs2)cc1-c1nc(N2CCC(N)CC2)nc2c1ccc(=O)n2-c1c(F)cccc1F [Example 73, 3-[2-(4-amino-1-piperidinyl)-8-(2,6-difluorophenyl)-7-oxo-7,8-dihydropyrido[2,3-d]pyrimidin-4-yl]-4-methyl-N-1,3-thiazol-2-ylbenzamide]	statistically significant inhibition of neutrophilia
CNCCNc1nc(-c2cc(C(=O)Nc3nccs3)ccc2C)c2ccc(=O)n(-c3c(F)cccc3F)c2n1 [Example 61, 3-(8-(2,6-difluorophenyl)-2-{[2-(methylamino)ethyl]amino}-7-oxo-7,8-dihydropyrido[2,3-d]pyrimidin-4-yl)-4-methyl-N-1,3-thiazol-2-ylbenzamide]	statistically significant inhibition of neutrophilia

Reference: patent publication US8354416B2 (Glaxo Group Limited, priority 2005, dated 2013)
